Measurements as given in patent publication US20140335532A1, “HUMAN SKIN SAMPLE METHODS AND MODELS FOR VALIDATING HYPOTHESES FOR MECHANISMS DRIVING SKIN PIGMENTATION” (The Procter & Gamble Company, priority 2011, published 2014).

Assays:
9 epidermal tone genes [1] = assay: Endogenously driven ex-vivo human skin tissue, transcription of epidermal tone genes vs untreated control; format: cell-based; details: for # Genes (out of 9) with p ≦ 0.1: endogenously driven tissue sample, 37° C. and 70% humidity, epidermal genes regulated vs untreated control, 2-10 experiments each
Experimental: Referring to FIGS. 11 to 15, examples are shown for the regulation of the 9 epidermal tone genes against an untreated control in an endogenously driven ex-vivo tissue system at 37° C. and 70% humidity for niacinamide, hexamidine, N-Acetyl glucosamine, kojic acid, tranexamic acid, and undecylenoyl phenylalanine (2-10 experiments each). […] For instance, out of the 9 epidermal genes, at least one compound (Hexamidine) regulated 9 genes (with a statistical significance of p<0.1 or better) while two compounds regulated 5 or fewer genes (with a p<0.1 or better). Table 1 below summarizes the number of epidermal genes regulated by certain materials in an endogenously driven tissue sample with a statistical significance of p≦0.1.
Culturing involved setting up culture plates: putting 2.5 ml of media or treatment into each well of a 6-well tissue plate, adding one Millicell culture insert to each well, and putting 100 μl of 1×DMEM on the center of each insert membrane. Squares were selected randomly placed into each of the inserts (one piece of skin per insert), on top of the media on the membrane. The plates were stored at either 33° C. (though an additional non-limiting example would be 37° C. depending on the experiment endpoint). As a control, baseline tissue measurements were collected from excess waste (cryogenics were used for snap freezing). Baseline biopsy collection involved two 4 mm punches for MTT; One 4 mm punch was snap frozen in OCT for fresh histology; One 4 mm punch was fixed in 10% formalin and sent out for paraffin embedding. PCR baseline was also be taken with six 4 mm punches snap frozen in liquid nitrogen.
Culture and treatment of the model comprised replicates of n=5 (though replicates of additional quantities may be used such as n=6). Media Dosing of skin involved solubilizing used in appropriate solvents (including PBS, Media, alcohol, and DMSO; in using DMSO, the final concentration in the plate was restricted to 0.01%). Appropriate dilutions were made for treatment: 15 ml of media were required per plate per day for treatment, with 2.5 ml of media required per well under the cell culture insert. Media was pre-warmed and changed every day during the experiment.
Skin was topically dosed. To do so, formulation for a compound of interest was obtained. Variation was minimized by having a vehicle that was as close to test formula as possible (making sure glycerin concentration was the same, determining if there was a vitamin package in the formula, determining if there was niacimamide; all of these were the same between the vehicle control formula and the test formula) (in ideal embodiments, the only difference is the unknown test compound). The skin was treated using a positive displacement pipette with 20 ul of formulation. A sterile cotton swab was used after application to spread and rub in the formula. Media was changed every day. The media was aspirated and replaced with fresh warmed media at a level of 2.5 ml per well.
For cryopreparation and extraction the following equipment was obtained and prepared: 2 ml round bottom tubes were prepared with 1 ml of TRIZOL as was a 5 mm stainless steel bead for each sample; a dry ice bucket was obtained and liquid nitrogen was placed in the bucket. Biopsy punches were maintained on dry ice, and samples remained frozen. Cryobags and covaris cryoprep were used in freeze fracturing of samples. To freeze fracture the samples, biopsies were placed in a cryo bag (2 per sample) and dipped in liquid nitrogen, then placed in cryoprep (setting 4). The sample bag was taken out and dipped back into nitrogen. A flattened disk was removed and placed into corresponding 2 ml tubes with TRIZOL. The disk was kept frozen in the TRIZOL. The tube was closed and snap frozen, and the whole tube was placed in liquid nitrogen. After repeating the process with all the samples, samples were placed into boxes and stored at −80 until the next step. […]

9 epidermal tone genes [2] = assay: Stem Cell Factor/Endothelin 1 driven ex-vivo human skin tissue, transcription of epidermal tone genes vs untreated control; format: cell-based; details: Stem Cell Factor/Endothelin 1 driven tissue sample; 37° C. and 70% humidity; out of 9 epidermal genes; 2-10 experiments each
Experimental: Referring to FIGS. 19 to 23, examples (of 2-10 experiments each) are shown for the regulation of the 9 epidermal tone genes against an untreated control in ex-vivo tissue driven by the combination of Stem Cell Factor and Endothelin at 37° C. and 70% humidity for niacinamide, hexamidine, N-Acetyl glucosamine, kojic acid, tranexamic acid, and undecylenoyl phenylalanine. […] For instance, out of the 9 epidermal genes, at least one compound (undecylenoyl phenylalanine) regulated 5 genes (with a statistical significance of p<0.1 or better) while two compounds regulated 2 or fewer genes (with a p<0.1 or better). Table 2 below summarizes the number of epidermal genes regulated by certain materials in a Stem Cell Factor/Endothelin 1 driven tissue sample with a statistical significance of p≦0.1.
In example embodiments, tone is driven by application of stem cell factor and/or endothelin (with skin preparation, culturing, and mRNA processing being completed as previously described). In an example embodiment, skin samples are placed within 6-well plates, with 2.5 ml of media per well. A concentration of eighty nanograms per milliliter of stem cell factor as well as eighty nanograms per milliliter of endothelin was applied to tissue in the wells, with the media being refreshed daily. The culture was maintained for seven days. Inhibitors of tone-related genes were applied; hexamidine and undecylenoyl phenylalanine were applied topically and daily in vehicles at 0.1% and 0.25%, respectively.

tone genes of interest = assay: Ex-vivo tissue culture exposed to compounds known to stimulate the pigmentation pathway, tone gene regulation; format: cell-based, human; details: p≦0.1, minimum of 2-10 experiments each, FIG. 16
[3] = test system: rat melanoma line known to produce melanin; assay: Total melanin assay in melanoma cell line; format: cell-based; details: rat melanoma cell cultures
Experimental: (§1) The ex-vivo screening method has provided identification of agents consistent with in-vitro studies and which have proven positive clinically. One such example is hexyldecanol. […] For example, total melanin assays were performed using a rat melanoma line known to produce melanin. […] Therefore, promising tone agents such as hexyldecanol identified from the in-vitro model and the ex-vivo model have been tested in clinical settings.

tone genes = assay: Human Ex-vivo Pre-Clinical Model, fold regulation of tone genes by clinical formulations; format: cell-based; details: FIGS. 25a and 25b
Experimental: FIGS. 25a and 25b show two respective tables showing ex-vivo model fold regulation changes indicating significant down-regulation by clinical formulations in the Human Ex-vivo Pre-Clinical Model.
as §1

[4] = test system: facial skin pigmentation (spots, melanin evenness); assay: 9-week clinical study, randomized, double-blind, vehicle-controlled, split-face; format: in vivo, human; details: 9-week study
Text: For example, hexyldecanol was compared to vehicle controls and positive controls (5% Niacinamide+1% undecylenoyl phenylalanine) through a 9-week period. Specifically the trial included a 9-week clinical study with a randomized, double-blind, round robin, vehicle-controlled, split-face design, including one week normalization period whereby 330 subjects received test product.

`C=CCCCCCCCCC(=O)N[C@@H](Cc1ccccc1)C(=O)O` [Undecylenoyl phenylalanine, undecylenoyl phenylalanine] was tested, and the “# Genes (out of 9) with p ≦ 0.1” value (9 epidermal tone genes [1]) was 3 and the “# of Genes with p ≦ 0.1” value (9 epidermal tone genes [2]) was 5.
α-MSH was tested, and the “Regulation of tone genes of interest” value (tone genes of interest) was “up regulate one or more tone genes of interest”.
In the case of `CC(=O)N[C@H]1C(O)O[C@H](CO)[C@@H](O)[C@@H]1O` (some centres unmarked) [NAG, N-Acetyl glucosamine], the “# Genes (out of 9) with p ≦ 0.1” value (9 epidermal tone genes [1]) was 6 and the “# of Genes with p ≦ 0.1” value (9 epidermal tone genes [2]) was 1.
With `CCCCCCCCC(CO)CCCCCC` (centres unmarked) [Hexyldecanol, hexyldecanol] the “Total melanin produced as compared to controls” value [3] was “decreased”, the “Ex-vivo model gene regulation” value (tone genes) was “down-regulation” and the “Overall clinical outcome vs vehicle” value ([4]; 330 subjects, significant if p<0.10 (1-sided) vs. vehicle) was “statistically better than vehicle controls”. For the same compound, the Melanin evenness ([4]; versus the vehicle control) was “significantly different from controls” and the “Spot area fraction (total area of spots per face)” value ([4]; versus vehicle control group) was “significantly different from controls”.
With “Stem Cell Factor: compound known to stimulate the pigmentation pathway; paracrine agent” the “Regulation of tone genes of interest” value (tone genes of interest) was “up regulate one or more tone genes of interest”.
For `N=C(N)c1ccc(OCCCCCCOc2ccc(C(=N)N)cc2)cc1` [Hexamidine, hexamidine], the “# Genes (out of 9) with p ≦ 0.1” value (9 epidermal tone genes [1]) was 9 and the “# of Genes with p ≦ 0.1” value (9 epidermal tone genes [2]) was 4.
In the case of `O=c1cc(CO)occ1O` [Kojic Acid, kojic acid], the “# Genes (out of 9) with p ≦ 0.1” value (9 epidermal tone genes [1]) was 5 and the “# of Genes with p ≦ 0.1” value (9 epidermal tone genes [2]) was 2.
For tranexamic acid, the “# Genes (out of 9) with p ≦ 0.1” value (9 epidermal tone genes [1]) was 7 and the “# of Genes with p ≦ 0.1” value (9 epidermal tone genes [2]) was 3.
In the case of `NC(=O)c1cccnc1` [Niacinamide, niacinamide], the “Down-regulation of tone genes by donor Fitzpatrick type” value (9 epidermal tone genes [1]; 5% niacinamide, Fitzpatrick V donor vs two Fitzpatrick III donors, FIG. 1) was “more challenging to down-regulate”, the “# Genes (out of 9) with p ≦ 0.1” value (9 epidermal tone genes [1]) was 7 and the “# of Genes with p ≦ 0.1” value (9 epidermal tone genes [2]) was 3.
